Assay results taken from paper PMC8426237, “A first-in-human phase I study of TAS0728, an oral covalent binding inhibitor of HER2, in patients with advanced solid tumors with HER2 or HER3 aberrations” (Investigational New Drugs, 2021).

Experiment: Phase I safety assessment: adverse events (CTCAE v5.0) in patients
[1] = Dose Level 3: 200 mg BID (N = 7)
[2] = Dose Level 3d: 150 mg BID (N = 6)
[3] = all treated population, overall

Method: A DLT was defined as a study treatment-related adverse event (TRAE), according to the Common Terminology Criteria for Adverse Events (CTCAE, Version 5.0), with qualifying criteria for certain DLTs (e.g., Grade ≥ 3 diarrhea, was included as a DLT only if lasting >48 h and unresponsive to intensive antidiarrheal medication).
Patients were closely monitored for these potential toxicities during the current study. Safety assessments included recording of AEs and serious AEs (SAEs) from the time of signing the study informed consent form to 30 days after the last dose of study medication. Safety parameters including laboratory evaluations (hematology, coagulation, chemistry, and urinalysis), vital sign measurements and body weight, electrocardiogram (ECG) recordings, ECOG performance status, echocardiogram or multi-gated acquisition (MUGA), and physical examination were assessed at screening, during the study and at 30 days following the last dose. The use of concomitant medications was permitted and details for such medications were recorded.

For `C=CC(=O)N1CCC[C@@H](n2nc(C(=O)Nc3ccc(CC(=O)N(C)C)c(C)c3C)c3c(N)ncnc32)C1` [TAS0728], the “Dermatitis acneiform, ≥Grade 3” value [1] was 0 n (%), the “Diarrhea, Grade 1” value [1] was 5 (71.4) n (%) and the “Diarrhea, Grade 2” value [1] was 5 (71.4) n (%). For the same molecule, the “Diarrhea, Grade 3” value [1] was 3 (42.9) n (%), the “Diarrhea, Grade 4” value [1] was 0 n (%) and the “Diarrhea, Grade 5” value [1] was 0 n (%). The “Diarrhea, Total” value [1] was 6 (85.7) n (%), the “Diarrhea, ≥Grade 3” value [1] was 3 (42.9) n (%) and the “Dry skin, Grade 1” value [1] was 2 (28.6) n (%). The “Dry skin, Grade 2” value [1] was 0 n (%), the “Dry skin, Grade 3” value [1] was 0 n (%) and the “Dry skin, Grade 4” value [1] was 0 n (%). The “Dry skin, Grade 5” value [1] was 0 n (%), the “Dry skin, Total” value [1] was 2 (28.6) n (%) and the “Dry skin, ≥Grade 3” value [1] was 0 n (%). For the same molecule, the “Fatigue, Grade 1” value [1] was 1 (14.3) n (%), the “Fatigue, Grade 2” value [1] was 3 (42.9) n (%) and the “Fatigue, Grade 3” value [1] was 0 n (%). The “Fatigue, Grade 4” value [1] was 0 n (%), the “Fatigue, Grade 5” value [1] was 0 n (%) and the “Fatigue, Total” value [1] was 3 (42.9) n (%). For the same molecule, the “Fatigue, ≥Grade 3” value [1] was 0 n (%), the “Hypokalemia, Grade 1” value [1] was 2 (28.6) n (%) and the “Hypokalemia, Grade 2” value [1] was 0 n (%). The “Hypokalemia, Grade 3” value [1] was 0 n (%), the “Hypokalemia, Grade 4” value [1] was 0 n (%) and the “Hypokalemia, Grade 5” value [1] was 0 n (%). For the same molecule, the “Hypokalemia, Total” value [1] was 2 (28.6) n (%), the “Hypokalemia, ≥Grade 3” value [1] was 0 n (%) and the “Nausea, Grade 1” value [1] was 1 (14.3) n (%). For the same molecule, the “Nausea, Grade 2” value [1] was 2 (28.6) n (%), the “Nausea, Grade 3” value [1] was 0 n (%) and the “Nausea, Grade 4” value [1] was 0 n (%). The “Nausea, Grade 5” value [1] was 0 n (%), the “Nausea, Total” value [1] was 2 (28.6) n (%) and the “Nausea, ≥Grade 3” value [1] was 0 n (%). The “Oedema peripheral, Grade 1” value [1] was 2 (28.6) n (%), the “Oedema peripheral, Grade 2” value [1] was 0 n (%) and the “Oedema peripheral, Grade 3” value [1] was 0 n (%). The “Oedema peripheral, Grade 4” value [1] was 0 n (%), the “Oedema peripheral, Grade 5” value [1] was 0 n (%) and the “Oedema peripheral, Total” value [1] was 2 (28.6) n (%). For the same molecule, the “Oedema peripheral, ≥Grade 3” value [1] was 0 n (%), the “Pyrexia, Grade 1” value [1] was 2 (28.6) n (%) and the “Pyrexia, Grade 2” value [1] was 1 (14.3) n (%). For the same molecule, the “Pyrexia, Grade 3” value [1] was 0 n (%), the “Pyrexia, Grade 4” value [1] was 0 n (%) and the “Pyrexia, Grade 5” value [1] was 0 n (%). The “Pyrexia, Total” value [1] was 3 (42.9) n (%), the “Pyrexia, ≥Grade 3” value [1] was 0 n (%) and the “Vomiting, Grade 1” value [1] was 1 (14.3) n (%). The “Vomiting, Grade 2” value [1] was 1 (14.3) n (%), the “Vomiting, Grade 3” value [1] was 0 n (%) and the “Vomiting, Grade 4” value [1] was 0 n (%). For the same molecule, the “Vomiting, Grade 5” value [1] was 0 n (%), the “Vomiting, Total” value [1] was 2 (28.6) n (%) and the “Vomiting, ≥Grade 3” value [1] was 0 n (%). For the same molecule, the “Adverse events experienced in ≥10% patients, Grade 1” value [2] was 5 (83.3) n (%), the “Adverse events experienced in ≥10% patients, Grade 2” value [2] was 5 (83.3) n (%) and the “Adverse events experienced in ≥10% patients, Grade 3” value [2] was 3 (50.0) n (%). The “Adverse events experienced in ≥10% patients, Grade 4” value [2] was 0 n (%), the “Adverse events experienced in ≥10% patients, Grade 5” value [2] was 1 (16.7) n (%) and the “Adverse events experienced in ≥10% patients, Total” value [2] was 6 (100) n (%). The “Adverse events experienced in ≥10% patients, ≥Grade 3” value [2] was 3 (50.0) n (%), the “Back pain, Grade 1” value [2] was 1 (16.7) n (%) and the “Back pain, Grade 2” value [2] was 1 (16.7) n (%). The “Back pain, Grade 3” value [2] was 0 n (%), the “Back pain, Grade 4” value [2] was 0 n (%) and the “Back pain, Grade 5” value [2] was 0 n (%). The “Back pain, Total” value [2] was 2 (33.3) n (%), the “Back pain, ≥Grade 3” value [2] was 0 n (%) and the “Diarrhea, Grade 1” value [2] was 2 (33.3) n (%). For the same molecule, the “Diarrhea, Grade 2” value [2] was 1 (16.7) n (%), the “Diarrhea, Grade 3” value [2] was 2 (33.3) n (%) and the “Diarrhea, Grade 4” value [2] was 0 n (%). For the same molecule, the “Diarrhea, Grade 5” value [2] was 0 n (%), the “Diarrhea, Total” value [2] was 4 (66.7) n (%) and the “Diarrhea, ≥Grade 3” value [2] was 2 (33.3) n (%). The “Pyrexia, Grade 1” value [2] was 0 n (%), the “Pyrexia, Grade 2” value [2] was 2 (33.3) n (%) and the “Pyrexia, Grade 3” value [2] was 0 n (%). For the same molecule, the “Pyrexia, Grade 4” value [2] was 0 n (%), the “Pyrexia, Grade 5” value [2] was 0 n (%) and the “Pyrexia, Total” value [2] was 2 (33.3) n (%). For the same molecule, the “Pyrexia, ≥Grade 3” value [2] was 0 n (%), the “Vomiting, Grade 1” value [2] was 2 (33.3) n (%) and the “Vomiting, Grade 2” value [2] was 0 n (%). The “Vomiting, Grade 3” value [2] was 0 n (%), the “Vomiting, Grade 4” value [2] was 0 n (%) and the “Vomiting, Grade 5” value [2] was 0 n (%). For the same molecule, the “Vomiting, Total” value [2] was 2 (33.3) n (%), the “Vomiting, ≥Grade 3” value [2] was 0 n (%) and the “Patients with AEs” value (Overall (N = 19)) was 19 (100) n, (%). The “Patients with AEs that had an outcome of death” value (Overall (N = 19)) was 1 (5.3) n, (%), the “Patients with AEs that led to study treatment discontinuation” value (Overall (N = 19)) was 3 (15.8) n, (%) and the “Patients with Grade ≥ 3 AEs” value (Overall (N = 19)) was 9 (47.4) n, (%). For the same molecule, the “Patients with SAEs” value (Overall (N = 19)) was 8 (42.1) n, (%), the “Patients with treatment-related AEs” value (Overall (N = 19)) was 17 (89.5) n, (%) and the “Patients with treatment-related and Grade ≥ 3 AEs” value (Overall (N = 19)) was 6 (31.6) n, (%). The “Patients who died during the study” value (all dose levels) was 4, the “Patients who experienced an AE during the study” value (all treated population, all 19 patients) was 100.0% and the “TRAE incidence: diarrhea” value [3] was 78.9%. The “TRAE incidence: fatigue” value [3] was 21.1%, the “TRAE incidence: nausea” value [3] was 21.1% and the “TRAE incidence: vomiting” value [3] was 21.1%. For the same molecule, the “TRAEs considered ≥Grade 3 in severity” value [3] was 31.6%, the “≥Grade 3 TRAE incidence: diarrhea” value [3] was 26.3% and the “Patients with an SAE considered related to study drug” value (all treated population, three of 19, diarrhea (200- and 150-mg BID), cardiac arrest (150 mg BID)) was 15.8%. The “Changes from baseline in clinical laboratory results and standard 12-lead ECG parameters” value (during the study) was “No clinically meaningful changes from baseline”, the “Patients who experienced an AE that led to study drug discontinuation” value (in total, all dose levels) was 4 and the “Deaths >30 days after the last dose of study treatment, all due to clinical progression” value (of 4 deaths) was 3. For the same molecule, the “Patients who experienced ≥1 SAE” value (overall population, 8 of 19) was 42.1%, the “Patients with an SAE Grade 3 or higher in severity” value (overall population, five patients) was 26.3% and the “SAE incidence: acute kidney injury” value (overall, 1 patient) was 5.3%. For the same molecule, the “SAE incidence: back pain” value (overall, 1 patient) was 5.3%, the “SAE incidence: cardiac arrest” value (overall, 1 patient) was 5.3% and the “SAE incidence: cellulitis” value (overall, 1 patient) was 5.3%. For the same molecule, the “SAE incidence: clostridium colitis” value (overall, 1 patient) was 5.3%, the “SAE incidence: dysphagia” value (overall, 1 patient) was 5.3% and the “≥Grade 3 TRAE incidence: acute kidney injury” value (overall, 1 patient) was 5.3%. For the same molecule, the “≥Grade 3 TRAE incidence: cardiac arrest” value (overall, 1 patient) was 5.3%, the “≥Grade 3 TRAE incidence: proteinuria” value (overall, 1 patient) was 5.3% and the “SAE incidence: diarrhea” value (overall, 2 patients) was 10.5%. The “SAE incidence: pyrexia” value (overall, 4 patients (2 each at 200 mg and 150 mg BID)) was 21.1%, the “Patients with diarrhea at a severity ≥Grade 3” value (reduced dose of 150 mg BID) was 2 and the Patients with diarrhea (reduced dose of 150 mg BID, 4 of 6) was 66.7%.
